Source: patent US12252524B2, “GIP/GLP1 co-agonist compounds” (Eli Lilly and Company, priority 2018, dated 2025)
Numbered stars: 1 amine (or outer) side, 2 acyl side, 3 side chain; on linkers, the order of the positions; unused ones are H or OH. Square brackets hold non-standard residues; d marks the D form. Side chains are listed from the residue outwards. Peptide text beside a SMILES is read from it. * marks the point of attachment. C20 diacid = O=C(O)CCCCCCCCCCCCCCCCCCC(=O)*; C18 diacid = O=C(O)CCCCCCCCCCCCCCCCC(=O)*; αMePhe(2-F) = C[C@](N)(Cc1ccccc1F)C(=O)O; γGlu = O=C(O)[C@H](CCC(=O)[*:2])N[*:1]; αMeF = C[C@](N)(Cc1ccccc1)C(=O)O; 4Pal = N[C@@H](Cc1ccncc1)C(=O)O; αMeL = CC(C)C[C@](C)(N)C(=O)O; AEEA = NCCOCCOCC(=O)O; Aib = CC(C)(N)C(=O)O

Tests used:
human GLP-1R = human GLP-1R (Homo sapiens, UniProt P43220); assay: [125I]-GLP-1 binding (SPA), human GLP-1 receptor; parameters: expressed in transfected cells; crude membranes; conditions: read-out: hGLP1R Ki, (nM) (SEM, n)
Outline: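 Ki values are geometric means with SEM over independent replicates on different days, derived from IC50s fitted by four-parameter nonlinear regression. The assay used crude cell membranes in HEPES buffer, pH 7.4, containing CaCl2, MgCl2, bacitracin and TWEEN-20.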

human GIP receptor = molecular target: T1, human GIP receptor (Homo sapiens, UniProt P48546); assay: [125I]-GIP binding (SPA), human GIP receptor; conditions: read-out: hGIPR Ki, nM (SEM, n)
T1 construct: expressed in transfected cells; crude membranes
T1 sequence (P48546 22-466): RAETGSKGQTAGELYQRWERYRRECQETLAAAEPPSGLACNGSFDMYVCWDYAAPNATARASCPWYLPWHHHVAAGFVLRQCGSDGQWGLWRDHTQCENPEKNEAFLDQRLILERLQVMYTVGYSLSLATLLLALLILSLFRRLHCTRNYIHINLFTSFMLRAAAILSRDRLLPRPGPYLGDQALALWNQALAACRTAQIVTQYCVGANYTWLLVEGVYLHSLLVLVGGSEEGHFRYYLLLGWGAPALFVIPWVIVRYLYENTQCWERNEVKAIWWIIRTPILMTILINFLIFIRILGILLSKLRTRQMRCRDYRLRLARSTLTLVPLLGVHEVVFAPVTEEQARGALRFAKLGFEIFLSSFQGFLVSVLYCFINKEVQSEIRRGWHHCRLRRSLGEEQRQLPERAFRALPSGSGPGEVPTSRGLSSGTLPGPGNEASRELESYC

[1] = molecular target: T2, gastric inhibitory peptide receptor (GIPR) (Homo sapiens, UniProt P48546); assay: cAMP pharmacological functional assay in presence of casein, hGIPR; format: cell-based; conditions: HEK293 cells expressing hGIPR, 0.1% Casein, geometric mean; read-out: hGIPR cAMP Rel EC50 nM (SEM, n)
T2 sequence (P48546 22-466): T1 sequence (P48546 22-466)

human Gcg receptor = molecular target: T3, human Gcg receptor (Homo sapiens, UniProt P47871); assay: [125I]-Glucagon binding (SPA), human Gcg receptor; conditions: read-out: hGLcgR Ki, nM (SEM, n)
T3 construct: expressed in transfected cells; crude membranes
Outline: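 Scintillation counts are taken after membranes and WGA beads incubate and settle for 12 hours at room temperature. Buffer is 25 mM HEPES, pH 7.4, with CaCl2, MgCl2, bacitracin and Tween-20. Ki values, from four-parameter IC50 fits, are geometric means over independent days.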

[2] = molecular target: human GLP-1 receptor (GLP-1R) (Homo sapiens, UniProt P43220); assay: cAMP pharmacological functional assay in presence of casein, hGLP-1R; format: cell-based; conditions: HEK293 cells expressing hGLP-1R, 0.1% Casein, geometric mean; read-out: hGLP1R cAMP Rel EC50 nM (SEM, n)
Chain of human GLP-1 receptor (GLP-1R) (P43220 24-463): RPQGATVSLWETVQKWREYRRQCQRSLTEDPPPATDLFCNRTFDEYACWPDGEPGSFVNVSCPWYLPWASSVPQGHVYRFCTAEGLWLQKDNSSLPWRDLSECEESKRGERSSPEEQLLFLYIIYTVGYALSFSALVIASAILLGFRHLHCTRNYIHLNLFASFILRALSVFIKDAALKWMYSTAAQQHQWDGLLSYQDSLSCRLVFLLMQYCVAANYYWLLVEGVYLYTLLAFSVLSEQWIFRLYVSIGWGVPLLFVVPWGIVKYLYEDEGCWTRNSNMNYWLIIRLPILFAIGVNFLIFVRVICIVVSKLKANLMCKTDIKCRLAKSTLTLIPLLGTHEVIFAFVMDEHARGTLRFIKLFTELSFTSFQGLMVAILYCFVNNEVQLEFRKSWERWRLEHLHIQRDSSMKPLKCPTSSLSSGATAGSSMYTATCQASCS

T3 sequence (P47871 26-477): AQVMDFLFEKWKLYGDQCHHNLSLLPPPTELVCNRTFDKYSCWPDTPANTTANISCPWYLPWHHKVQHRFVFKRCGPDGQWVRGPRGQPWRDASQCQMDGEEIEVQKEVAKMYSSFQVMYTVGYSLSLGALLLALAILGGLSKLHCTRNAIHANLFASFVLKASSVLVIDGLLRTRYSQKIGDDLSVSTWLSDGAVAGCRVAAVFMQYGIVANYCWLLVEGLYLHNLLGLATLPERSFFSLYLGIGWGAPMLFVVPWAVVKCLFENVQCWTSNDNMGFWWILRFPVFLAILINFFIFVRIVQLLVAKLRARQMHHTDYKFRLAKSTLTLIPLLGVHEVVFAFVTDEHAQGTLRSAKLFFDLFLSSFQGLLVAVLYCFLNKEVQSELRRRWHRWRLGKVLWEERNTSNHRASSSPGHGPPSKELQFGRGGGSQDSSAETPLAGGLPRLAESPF
Chain of human GLP-1R (P43220 24-463): as the sequence (P43220 24-463) above

Compound | Ki (human GLP-1R) [nM] | Ki (human GIP receptor) [nM] | EC50 [1] [nM] | Ki (human Gcg receptor) [nM] | EC50 [2] [nM]
CC[C@H](C)[C@H](NC(=O)[C@H](CC(C)C)NC(=O)[C@H](Cc1ccc(O)cc1)NC(=O)C(C)(C)NC(=O)[C@@H](NC(=O)[C@H](Cc1ccccc1)NC(=O)[C@H](CCC(=O)O)NC(=O)C(C)(C)NC(=O)[C@H](CCC(N)=O)NC(=O)[C@H](C)NC(=O)[C@H](CCCCNC(=O)COCCOCCNC(=O)COCCOCCNC(=O)CC[C@H](NC(=O)CCCCCCCCCCCCCCCCCCC(=O)O)C(=O)O)NC(=O)[C@H](CCC(=O)O)NC(=O)[C@H](CC(=O)O)NC(=O)[C@H](CC(C)C)NC(=O)[C@](C)(CC(C)C)NC(=O)[C@@H](NC(=O)[C@H](CO)NC(=O)[C@H](Cc1ccncc1)NC(=O)[C@H](CC(=O)O)NC(=O)[C@H](CO)NC(=O)[C@@H](NC(=O)[C@](C)(Cc1ccccc1F)NC(=O)[C@@H](NC(=O)CNC(=O)[C@H](CCC(=O)O)NC(=O)C(C)(C)NC(=O)[C@@H](N)Cc1ccc(O)cc1)[C@@H](C)O)[C@@H](C)O)[C@@H](C)CC)[C@@H](C)CC)C(=O)N[C@@H](CCC(=O)O)C(=O)NCC(=O)NCC(=O)N1CCC[C@H]1C(=O)N[C@@H](CO)C(=O)N[C@@H](CO)C(=O)NCC(=O)N[C@@H](C)C(=O)N1CCC[C@H]1C(=O)N1CCC[C@H]1C(=O)N1CCC[C@H]1C(=O)N[C@@H](CO)C(N)=O [Example 189] (H-Y[Aib]EGT[αMePhe(2-F)]TSD[4Pal]SI[αMeL]LDEK([AEEA-AEEA-γGlu-C20 diacid])AQ[Aib]EFI[Aib]YLIEGGPSSGAPPPS-NH2) | 8.81 | 0.128 | 0.0775 | 146 | 0.0608
CC[C@H](C)[C@H](NC(=O)[C@H](CC(C)C)NC(=O)[C@H](Cc1ccc(O)cc1)NC(=O)[C@@H](CCC(=O)O)NC(=O)[C@@H](NC(=O)[C@H](Cc1ccccc1)NC(=O)[C@H](CCC(=O)O)NC(=O)C(C)(C)NC(=O)[C@H](CCC(N)=O)NC(=O)[C@H](C)NC(=O)[C@H](CCCCNC(=O)COCCOCCNC(=O)COCCOCCNC(=O)CCCCCCCCCCCCCCCCCCC(=O)O)NC(=O)[C@H](CCC(=O)O)NC(=O)[C@H](CC(=O)O)NC(=O)[C@H](CC(C)C)NC(=O)[C@](C)(CC(C)C)NC(=O)[C@@H](NC(=O)[C@H](CO)NC(=O)[C@H](Cc1ccncc1)NC(=O)[C@H](CC(=O)O)NC(=O)[C@H](CO)NC(=O)[C@@H](NC(=O)[C@](C)(Cc1ccccc1F)NC(=O)[C@@H](NC(=O)CNC(=O)[C@H](CCC(=O)O)NC(=O)C(C)(C)NC(=O)[C@@H](N)Cc1ccc(O)cc1)[C@@H](C)O)[C@@H](C)O)[C@@H](C)CC)[C@@H](C)CC)C(=O)N[C@@H](CCC(=O)O)C(=O)NCC(=O)NCC(=O)N1CCC[C@H]1C(=O)N[C@@H](CO)C(=O)N[C@@H](CO)C(=O)NCC(=O)N[C@@H](C)C(=O)N1CCC[C@H]1C(=O)N1CCC[C@H]1C(=O)N1CCC[C@H]1C(=O)N[C@@H](CO)C(N)=O [Example 206] (H-Y[Aib]EGT[αMePhe(2-F)]TSD[4Pal]SI[αMeL]LDEK([AEEA-AEEA-C20 diacid])AQ[Aib]EFI[dE]YLIEGGPSSGAPPPS-NH2; N-terminus assumed) | 5.27 | 0.0814 | 0.0409 | 176 | 0.027
CC[C@H](C)[C@H](NC(=O)[C@H](CO)NC(=O)[C@H](CC(=O)O)NC(=O)[C@H](CC(C)C)NC(=O)[C@H](CC(C)C)NC(=O)[C@@H](NC(=O)[C@H](CO)NC(=O)[C@H](Cc1ccc(O)cc1)NC(=O)[C@H](CC(=O)O)NC(=O)[C@H](CO)NC(=O)[C@@H](NC(=O)[C@H](Cc1ccccc1)NC(=O)[C@@H](NC(=O)CNC(=O)[C@H](CCC(=O)O)NC(=O)C(C)(C)NC(=O)[C@@H](N)Cc1ccc(O)cc1)[C@@H](C)O)[C@@H](C)O)[C@@H](C)CC)C(=O)N[C@@H](C)C(=O)N[C@@H](CCC(N)=O)C(=O)NC(C)(C)C(=O)N[C@@H](C)C(=O)N[C@@H](Cc1ccccc1)C(=O)N[C@H](C(=O)N[C@@H](CCCCNC(=O)COCCOCCNC(=O)COCCOCCNC(=O)CC[C@H](NC(=O)CCCCCCCCCCCCCCCCCCC(=O)O)C(=O)O)C(=O)N[C@@H](Cc1ccc(O)cc1)C(=O)N[C@@H](CC(C)C)C(=O)N[C@@H](CC(C)C)C(=O)N[C@@H](C)C(=O)NC(C)(C)C(=O)NCC(=O)N1CCC[C@H]1C(=O)N[C@@H](CO)C(=O)N[C@@H](CO)C(=O)NCC(=O)N[C@@H](C)C(=O)N1CCC[C@H]1C(=O)N1CCC[C@H]1C(=O)N1CCC[C@H]1C(=O)N[C@@H](CO)C(N)=O)[C@@H](C)CC [Example 10] (H-Y[Aib]EGTFTSDYSILLDSIAQ[Aib]AFIK([AEEA-AEEA-γGlu-C20 diacid])YLLA[Aib]GPSSGAPPPS-NH2) | 9.33 | 0.109 | 1.28 | 226 | 7.64
CC[C@H](C)[C@H](NC(=O)[C@H](CC(C)C)NC(=O)[C@H](Cc1ccc(O)cc1)NC(=O)[C@H](CCC(=O)O)NC(=O)[C@@H](NC(=O)[C@H](Cc1ccccc1)NC(=O)[C@H](C)NC(=O)C(C)(C)NC(=O)[C@H](CCC(N)=O)NC(=O)[C@H](C)NC(=O)[C@H](CCCCNC(=O)COCCOCCNC(=O)COCCOCCNC(=O)CC[C@H](NC(=O)CCCCCCCCCCCCCCCCCCC(=O)O)C(=O)O)NC(=O)[C@H](CCCCN)NC(=O)[C@H](CC(=O)O)NC(=O)[C@H](CC(C)C)NC(=O)[C@H](CC(C)C)NC(=O)[C@@H](NC(=O)[C@H](CO)NC(=O)[C@H](Cc1ccc(O)cc1)NC(=O)[C@H](CC(=O)O)NC(=O)[C@H](CO)NC(=O)[C@@H](NC(=O)[C@H](Cc1ccccc1)NC(=O)[C@@H](NC(=O)CNC(=O)[C@H](CCC(=O)O)NC(=O)C(C)(C)NC(=O)[C@@H](N)Cc1ccc(O)cc1)[C@@H](C)O)[C@@H](C)O)[C@@H](C)CC)[C@@H](C)CC)C(=O)N[C@@H](CCC(=O)O)C(=O)N[C@@H](C)C(=O)NCC(=O)N1CCC[C@H]1C(=O)N[C@@H](CO)C(=O)N[C@@H](CO)C(=O)NCC(=O)N[C@@H](C)C(=O)N1CCC[C@H]1C(=O)N1CCC[C@H]1C(=O)N1CCC[C@H]1C(=O)N[C@@H](CO)C(N)=O [Example 86] (H-Y[Aib]EGTFTSDYSILLDKK([AEEA-AEEA-γGlu-C20 diacid])AQ[Aib]AFIEYLIEAGPSSGAPPPS-NH2) | 3.74 | 0.0401 | 0.0452 | > 1060 | 0.271
CC[C@H](C)[C@H](NC(=O)[C@H](CC(C)C)NC(=O)[C@H](Cc1ccc(O)cc1)NC(=O)[C@H](CCC(=O)O)NC(=O)[C@@H](NC(=O)[C@H](Cc1ccccc1)NC(=O)[C@H](CCC(=O)O)NC(=O)C(C)(C)NC(=O)[C@H](CCC(N)=O)NC(=O)[C@H](C)NC(=O)[C@H](CCCCNC(=O)COCCOCCNC(=O)COCCOCCNC(=O)CC[C@H](NC(=O)CCCCCCCCCCCCCCCCC(=O)O)C(=O)O)NC(=O)[C@H](CCCCN)NC(=O)[C@H](CC(=O)O)NC(=O)[C@H](CC(C)C)NC(=O)[C@H](CC(C)C)NC(=O)[C@@H](NC(=O)[C@H](CO)NC(=O)[C@H](Cc1ccc(O)cc1)NC(=O)[C@H](CC(=O)O)NC(=O)[C@H](CO)NC(=O)[C@@H](NC(=O)[C@](C)(Cc1ccccc1)NC(=O)[C@@H](NC(=O)CNC(=O)[C@H](CCC(=O)O)NC(=O)C(C)(C)NC(=O)[C@@H](N)Cc1ccc(O)cc1)[C@@H](C)O)[C@@H](C)O)[C@@H](C)CC)[C@@H](C)CC)C(=O)N[C@@H](C)C(=O)NCC(=O)NCC(=O)N1CCC[C@H]1C(=O)N[C@@H](CO)C(=O)N[C@@H](CO)C(=O)NCC(N)=O [Example 310] (H-Y[Aib]EGT[αMeF]TSDYSILLDKK([AEEA-AEEA-γGlu-C18 diacid])AQ[Aib]EFIEYLIAGGPSSG-NH2; N-terminus assumed) | 1.7 | 0.0315 | 0.0176 | 174 | 0.0283
CC[C@H](C)[C@H](NC(=O)[C@H](CC(C)C)NC(=O)C(C)(Cc1ccc(O)cc1)NC(=O)[C@@H](CCC(=O)O)NC(=O)[C@@H](NC(=O)[C@H](Cc1ccccc1)NC(=O)[C@H](CCC(=O)O)NC(=O)C(C)(C)NC(=O)[C@H](CCC(N)=O)NC(=O)[C@H](C)NC(=O)[C@H](CCCCNC(=O)COCCOCCNC(=O)COCCOCCNC(=O)CC[C@H](NC(=O)CCCCCCCCCCCCCCCCC(=O)O)C(=O)O)NC(=O)[C@H](CCCN)NC(=O)[C@H](CC(=O)O)NC(=O)[C@H](CC(C)C)NC(=O)C(C)(CC(C)C)NC(=O)[C@@H](NC(=O)[C@H](CO)NC(=O)[C@H](Cc1ccncc1)NC(=O)[C@H](CC(=O)O)NC(=O)[C@H](CO)NC(=O)[C@@H](NC(=O)C(C)(Cc1ccccc1F)NC(=O)[C@@H](NC(=O)CNC(=O)[C@H](CCC(=O)O)NC(=O)C(C)(C)NC(=O)[C@@H](N)Cc1ccc(O)cc1)[C@@H](C)O)[C@@H](C)O)[C@@H](C)CC)[C@@H](C)CC)C(=O)N[C@@H](CCC(=O)O)C(=O)NCC(=O)NCC(N)=O (stereo partly drawn) [Example 265] | 0.537 | 0.0224 | 0.0229 | 567 | 0.0223
